What all share (type): cell-based
Experiment [1] relates to Candida albicans ATCC 90028. The experiment is described as follows: MIC assay (CLSI M27-A3), Candida albicans ATCC 90028. The following applies: Candida albicans. As for the experimental part: (§1) After a test compound was serially diluted, an MIC (minimum inhibitory concentration) assay was performed on the standard Candida strain and an MEC (minimum effective concentration) assay on the standard Aspergillus strain. The MIC assay was performed according to the guidelines of the Clinical and Laboratory Standards Institute (CLSI M27-A3) and the MEC assay according to the guidelines of the Clinical and Laboratory Standards Institute (CLSI M38-A2).
(§2) The frozen strain was passaged at least twice, and a single colony was picked and resuspended in normal saline or sterile water in a tube. The suspension was vortexed and adjusted to 0.5 McF (1×10^6 to 5×10^6 CFU/mL) using a spectrophotometer at wavelength 530 nm. The suspension was 50-fold diluted with normal saline and then 20-fold diluted with 1×RPMI 1640 broth (1×10^3 to 5×10^3 CFU/mL). 10 μL of the suspension was applied to an SDA plate for colony counting, with a range from about 10 to 50 single colonies.
At this time, the bacterium concentration in each well should be 0.5×10^3 to 2.5×10^3 CFU/mL. […]
(§3) Yeast-type fungi: A disposable sealing film was applied to the 96-well plate, and the mixture was well mixed by shaking. Observation was performed through a plate reader with the naked eye. Comparisons were made to the growth control, and the minimum compound concentration corresponding to ≥50% growth inhibition was defined as MIC. Pictures were taken and saved using an automatic plate reader.

For experiment [2], the system named is Candida albicans (azole drug-resistant strain) R358. The experiment is described as follows: MIC assay (CLSI M27-A3), Candida albicans azole drug-resistant strain R358. To be noted: Candida albicans, read-out: MIC, Candida albicans (azole drug-resistant strain) R358. As to the method:
as §1, §2
(§4) At this time, the bacterium concentration in each well should be 0.5×10^3 to 2.5×10^3 CFU/mL.
(§5) For echinocandin drugs, Aspergillus was incubated at 28° C. for 21-26 h, and then the MEC results were read.
as §3

The subject of experiment [3] is Candida tropicalis (amphotericin-resistant strain) ATCC 200956. The experiment in a line: microbe, parasite or virus in culture. The following applies: Candida tropicalis, ATCC200956, read-out: MIC, Candida tropicalis (amphotericin-resistant strain) ATCC 200956. As for the experimental part:
as §1, §2, §4, §5, §3

Experiment [4] concerns Candida glabrata ATCC 36583. The experiment is described as follows: MIC assay (CLSI M27-A3), Candida glabrata ATCC 36583. To be noted: Nakaseomyces glabratus. As for the experimental part: as §1, §2, §4, §5, §3
The subject of experiment [5] is Candida albicans ATCC 44858. The experiment is described as follows: MIC assay (CLSI M27-A3), Candida albicans ATCC 44858. To be noted: Candida albicans. As to the method:
as §1, §2, §4, §5, §3

Experiment [6] has as its system Candida albicans (azole drug-resistant strain) R357. The experiment in a line: MIC assay (CLSI M27-A3), Candida albicans azole drug-resistant strain R357. The following applies: Candida albicans, read-out: MIC, Candida albicans (azole drug-resistant strain) R357. As to the method:
as §1, §2, §4, §5, §3

[7] abbreviates: ATCC90028, second batch, 24 h, 35° C., read-out: MIC, Candida albicans ATCC 90028.
Where [8] appears, read: ATCC90028, second batch, + 50% human serum, read-out: MIC, Candida albicans + 50% human serum ATCC 90028.
The mark [9] stands for this setting: ATCC36583, second batch, read-out: MIC, Candida glabrata ATCC 36583.
Where [10] appears, read: ATCC44858, second batch, read-out: MIC, Candida albicans ATCC 44858.
Where [11] appears, read: ATCC90028, 24 h, read-out: MIC, Candida albicans ATCC 90028.
Where [12] appears, read: ATCC90028, read-out: MIC, Candida albicans + 50% human serum ATCC 90028.
[13] abbreviates: ATCC36583, read-out: MIC, Candida glabrata ATCC 36583.
Where [14] appears, read: ATCC44858, read-out: MIC, Candida albicans ATCC 44858.

Where two headings read alike, the source gives them in different places. Starred links: 1 amine or outer side, 2 acyl side, 3 side chain; linkers in the order of their positions; H or OH if unused. Positions of bridges follow the written chain, without caps; N, C: chain ends. Non-standard residues stand in square brackets, D forms with d. Residues, ends and D or L forms follow the SMILES beside them. *: point of attachment. Orn(4R-OH,5R-OCH2CH2NMe3+) = C[N+](C)(C)CCO[C@@H](N[*:3])[C@H](O)C[C@H](N[*:1])C(=O)[*:2]; hTyr(3S-OH,4S-OH) = N[C@H](C(=O)O)[C@H](O)[C@@H](O)c1ccc(O)cc1; X2 = CCCCCCc1ccc(-c2ccc(-c3ccc(C(=O)*)cc3)cc2)cc1; X3 = CCCCCNc1ccc(-c2ccc(-c3ccc(C(=O)*)cc3)cc2)cc1; Pro(3S-OH,4S-Me) = C[C@H]1CN[C@H](C(=O)O)[C@H]1O; Hyp = O=C(O)[C@@H]1C[C@@H](O)CN1

Regarding `CCCCCOc1ccc(-c2ccc(-c3ccc(C(=O)N[C@H]4C[C@@H](O)[C@@H](O[C@@H]5CC[N+](C)(C)C5)NC(=O)[C@@H]5[C@@H](O)[C@@H](C)CN5C(=O)[C@H]([C@@H](C)O)NC(=O)[C@H]([C@H](O)[C@@H](O)c5ccc(O)cc5)NC(=O)[C@@H]5C[C@@H](O)CN5C(=O)[C@H]([C@@H](C)O)NC4=O)cc3)cc2)cc1` [Example 25], the MIC in experiment [1] (setting [7]) worked out at 0.25 µg/mL; in experiment [1] (setting [8]), 0.125 µg/mL; in experiment [2] (second batch), 0.25 µg/mL; in experiment [3] it was 0.25 µg/mL; in experiment [4] (setting [9]), 0.25 µg/mL; in experiment [5] (setting [10]), 0.125 µg/mL. Besides, the MIC in experiment [6] (second batch) worked out at 0.25 µg/mL.
Turning to `CCCCCOc1ccc(-c2ccc(-c3ccc(C(=O)N[C@H]4C[C@@H](O)[C@@H](O[C@H]5CC[N+](C)(C)C5)NC(=O)[C@@H]5[C@@H](O)[C@@H](C)CN5C(=O)[C@H]([C@@H](C)O)NC(=O)[C@H]([C@H](O)[C@@H](O)c5ccc(O)cc5)NC(=O)[C@@H]5C[C@@H](O)CN5C(=O)[C@H]([C@@H](C)O)NC4=O)cc3)cc2)cc1` [Example 26], the MIC in experiment [1] (setting [7]), in experiment [1] (setting [8]), in experiment [2] (second batch), in experiment [3], in experiment [4] (setting [9]) and in experiment [5] (setting [10]) was 0.25 µg/mL each time. In experiment [6] (second batch), the MIC came out at 0.5 µg/mL.
For `CCCCCCc1ccc(-c2ccc(-c3ccc(C(=O)N[C@H]4C[C@@H](O)[C@@H](OCC[N+](C)(C)C)NC(=O)[C@@H]5[C@@H](O)[C@@H](C)CN5C(=O)[C@H]([C@@H](C)O)NC(=O)[C@H]([C@H](O)[C@@H](O)c5ccc(O)cc5)NC(=O)[C@@H]5C[C@@H](O)CN5C(=O)[C@H]([C@@H](C)O)NC4=O)cc3)cc2)cc1` [Example 16] (X2-[Orn(4R-OH,5R-OCH2CH2NMe3+)]T[Hyp][hTyr(3S-OH,4S-OH)]T[Pro(3S-OH,4S-Me)]; lactam 1-C), the MIC in experiment [1] (setting [11]) amounted to 0.25 µg/mL; in experiment [1] (setting [12]), 0.5 µg/mL; in experiment [2], 0.25 µg/mL; in experiment [3], 0.25 µg/mL; in experiment [4] (setting [13]), 0.25 µg/mL; in experiment [5] (setting [14]) it was 0.25 µg/mL. Moreover, in experiment [6], the MIC was determined as 0.25 µg/mL.
For `CCCCCNc1ccc(-c2ccc(-c3ccc(C(=O)N[C@H]4C[C@@H](O)[C@@H](OCC[N+](C)(C)C)NC(=O)[C@@H]5[C@@H](O)[C@@H](C)CN5C(=O)[C@H]([C@@H](C)O)NC(=O)[C@H]([C@H](O)[C@@H](O)c5ccc(O)cc5)NC(=O)[C@@H]5C[C@@H](O)CN5C(=O)[C@H]([C@@H](C)O)NC4=O)cc3)cc2)cc1` [Example 17] (X3-[Orn(4R-OH,5R-OCH2CH2NMe3+)]T[Hyp][hTyr(3S-OH,4S-OH)]T[Pro(3S-OH,4S-Me)]; lactam 1-C), the MIC turned out to be 0.25 µg/mL in experiment [1] (setting [11]); 0.25 µg/mL in experiment [1] (setting [12]); 0.25 µg/mL in experiment [2]; 0.25 µg/mL in experiment [3]; 0.5 µg/mL in experiment [4] (setting [13]); 0.25 µg/mL in experiment [5] (setting [14]). Moreover, the MIC in experiment [6] was determined as 0.5 µg/mL.
